Experimental data from paper PMC7156458, “Synthetic biology based construction of biological activity-related library of fungal decalin-containing diterpenoid pyrones” (Nature Communications, 2020).

Molecular target: Aβ42 (Homo sapiens, UniProt P05067)
Experiment: Th-T (thioflavin-T) assay of Aβ42 aggregation
Type: biochemical
Conditions: for Th-T assay plate reading, mean of three wells (Supplementary Fig. 47): source data, Ab alone and No Ab as controls

Aβ42, sequence (P05067 672-713): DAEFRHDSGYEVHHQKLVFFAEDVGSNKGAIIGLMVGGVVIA

C=C1CCC2C(C)(CCC=C(C)C)C(O)CCC2(C)C1Cc1c(OC)oc(C)c(C)c1=O (stereo not drawn) [Compound 11]
Th-T fluorescence, mean of three wells (Aβ42 aggregation time course, reading M117): 3.419
Th-T fluorescence, mean of three wells (Aβ42 aggregation time course, reading M118): 3.454
Th-T fluorescence, mean of three wells (Aβ42 aggregation time course, reading M119): 3.399
Th-T fluorescence, mean of three wells (Aβ42 aggregation time course, reading M120): 3.398
Th-T fluorescence, mean of three wells (Aβ42 aggregation time course, reading M121): 3.42
Th-T fluorescence, mean of three wells (Aβ42 aggregation time course, reading M122): 3.434
Th-T fluorescence, mean of three wells (Aβ42 aggregation time course, reading M123): 3.405
Th-T fluorescence, mean of three wells (Aβ42 aggregation time course, reading M124): 3.409
Th-T fluorescence, mean of three wells (Aβ42 aggregation time course, reading M125): 3.379
Th-T fluorescence, mean of three wells (Aβ42 aggregation time course, reading M126): 3.403
Th-T fluorescence, mean of three wells (Aβ42 aggregation time course, reading M127): 3.386
Th-T fluorescence, mean of three wells (Aβ42 aggregation time course, reading M128): 3.37
Th-T fluorescence, mean of three wells (Aβ42 aggregation time course, reading M129): 3.334
Th-T fluorescence, mean of three wells (Aβ42 aggregation time course, reading M130): 3.361
Th-T fluorescence, mean of three wells (Aβ42 aggregation time course, reading M131): 3.331
Th-T fluorescence, mean of three wells (Aβ42 aggregation time course, reading M132): 3.363
Th-T fluorescence, mean of three wells (Aβ42 aggregation time course, reading M133): 3.349
Th-T fluorescence, mean of three wells (Aβ42 aggregation time course, reading M134): 3.347
Th-T fluorescence, mean of three wells (Aβ42 aggregation time course, reading M135): 3.342
Th-T fluorescence, mean of three wells (Aβ42 aggregation time course, reading M136): 3.355
Th-T fluorescence, mean of three wells (Supplementary Fig. 47, reading M137): 3.327
Th-T fluorescence, mean of three wells (Supplementary Fig. 47, reading M138): 3.302
Th-T fluorescence, mean of three wells (Supplementary Fig. 47, reading M139): 3.301
Th-T fluorescence, mean of three wells (Supplementary Fig. 47, reading M140): 3.319
Th-T fluorescence, mean of three wells (Supplementary Fig. 47, reading M141): 3.315
Th-T fluorescence, mean of three wells (Supplementary Fig. 47, reading M142): 3.306
Th-T fluorescence, mean of three wells (Supplementary Fig. 47, reading M143): 3.276
Th-T fluorescence, mean of three wells (Supplementary Fig. 47, reading M144): 3.297
Th-T fluorescence, mean of three wells (Supplementary Fig. 47, reading M145): 3.29
Th-T assay plate reading, mean of three wells (Supplementary Fig. 47) (measurement M1): 0.2852
Th-T assay plate reading, mean of three wells (Supplementary Fig. 47) (measurement M2): 0.2849
Th-T assay plate reading, mean of three wells (Supplementary Fig. 47) (measurement M3): 0.2915
Th-T assay plate reading, mean of three wells (Supplementary Fig. 47) (measurement M4): 0.2733
Th-T assay plate reading, mean of three wells (Supplementary Fig. 47) (measurement M5): 0.2777
Th-T assay plate reading, mean of three wells (Supplementary Fig. 47) (measurement M6): 0.2762
Th-T assay plate reading, mean of three wells (Supplementary Fig. 47) (measurement M7): 0.318
Th-T assay plate reading, mean of three wells (Supplementary Fig. 47) (measurement M8): 0.3144
Th-T assay plate reading, mean of three wells (Supplementary Fig. 47) (measurement M9): 0.404
Th-T assay plate reading, mean of three wells (Supplementary Fig. 47) (measurement M10): 0.4577
Th-T assay plate reading, mean of three wells (Supplementary Fig. 47) (measurement M11): 0.5537
Th-T assay plate reading, mean of three wells (Supplementary Fig. 47) (measurement M12): 0.8108
Th-T assay plate reading, mean of three wells (Supplementary Fig. 47) (measurement M13): 1.388
Th-T assay plate reading, mean of three wells (Supplementary Fig. 47) (measurement M14): 1.929
Th-T assay plate reading, mean of three wells (Supplementary Fig. 47) (measurement M15): 2.27
Th-T assay plate reading, mean of three wells (Supplementary Fig. 47) (measurement M16): 2.506
Th-T fluorescence, mean of three wells (reading M17, Supplementary Fig. 47 source data): 2.688
Th-T fluorescence, mean of three wells (time-course reading M97, Supplementary Fig. 47 source data): 3.56
Th-T fluorescence, mean of three wells (time-course reading M98, Supplementary Fig. 47 source data): 3.55
Th-T fluorescence, mean of three wells (time-course reading M99, Supplementary Fig. 47 source data): 3.504
Th-T fluorescence, mean of three wells (time-course reading M100, Supplementary Fig. 47 source data): 3.536
Th-T fluorescence, mean of three wells (time-course reading M101, Supplementary Fig. 47 source data): 3.529
Th-T fluorescence, mean of three wells (time-course reading M102, Supplementary Fig. 47 source data): 3.494
Th-T fluorescence, mean of three wells (time-course reading M103, Supplementary Fig. 47 source data): 3.477
Th-T fluorescence, mean of three wells (time-course reading M104, Supplementary Fig. 47 source data): 3.513
Th-T fluorescence, mean of three wells (time-course reading M105, Supplementary Fig. 47 source data): 3.503
Th-T fluorescence, mean of three wells (time-course reading M106, Supplementary Fig. 47 source data): 3.461
Th-T fluorescence, mean of three wells (time-course reading M107, Supplementary Fig. 47 source data): 3.469
Th-T fluorescence, mean of three wells (time-course reading M108, Supplementary Fig. 47 source data): 3.473
Th-T fluorescence, mean of three wells (time-course reading M109, Supplementary Fig. 47 source data): 3.5
Th-T fluorescence, mean of three wells (time-course reading M110, Supplementary Fig. 47 source data): 3.498
Th-T fluorescence, mean of three wells (time-course reading M111, Supplementary Fig. 47 source data): 3.4993
Th-T fluorescence, mean of three wells (time-course reading M112, Supplementary Fig. 47 source data): 3.484
Th-T fluorescence, mean of three wells (time-course reading M113, Supplementary Fig. 47 source data): 3.437
Th-T fluorescence, mean of three wells (time-course reading M114, Supplementary Fig. 47 source data): 3.447
Th-T fluorescence, mean of three wells (time-course reading M115, Supplementary Fig. 47 source data): 3.426
Th-T fluorescence, mean of three wells (time-course reading M116, Supplementary Fig. 47 source data): 3.43
